Results as given in patent publication US20210254056A1, “IDENTIFICATION AND TARGETED MODULATION OF GENE SIGNALING NETWORKS” (CAMP4 THERAPEUTICS CORPORATION, priority 2017, published 2021).
Where a name gives a salt, the structure may show the parent alone.

Tested on: hepatocytes
Assay: RNA-seq of hepatocytes treated with Phase III failure compounds
Conditions: for significant modulation of expression of disease genes: q≤0.05, genes in the value or listed in the block; for significant changes in gene expression: RNA-seq of Table 36, FPKM≥0.5, log 2(fold-change)≥1, q-value≤0.05; for significant modulation of expression of any of the genes analyzed: p≤0.05
Procedure: RNA-seq was performed to determine the effects of the compounds on hepatocytes.
Significance was determined by the criteria of FPKM≥0.5, a log 2(fold-change)≥1, and a […].

## COc1cc2nccc(Oc3ccc(NC(=O)Nc4cc(C)on4)c(Cl)c3)c2cc1OC [Tivozanib]
  RNA-seq results, CYP2B6 expression: 0.16
  RNA-seq results, CYP2C19 expression: −1.36
  RNA-seq results, CYP2D6 expression: 0.21
  RNA-seq results, CYP3A4 expression: 0.50
  RNA-seq results, CYP7B1 expression: −1.02
  RNA-seq results, CYP39A1 expression: 0.94
  RNA-seq results: CYP2B6 expression: 0.24
  RNA-seq results: CYP2C19 expression: 0.27
  RNA-seq results: CYP2D6 expression: −0.3
  RNA-seq results: CYP3A4 expression: 0.18
  RNA-seq results: CYP7B1 expression: −0.17
  RNA-seq results: CYP39A1 expression: 0.06
RNA-seq, hepatocytes
  significant modulation of expression of disease genes: significantly (q≤0.05) modulate expression
  effect on disease gene expression: effect on expression of too many disease genes
Gene A1BG, hepatocytes
  RNA-seq results: A1BG expression: 0.51
Gene AGTR1, hepatocytes
  RNA-seq results: AGTR1 expression: −0.47
Gene AGXT, hepatocytes
  RNA-seq results: AGXT expression: 0.04
Gene AHI1, hepatocytes
  RNA-seq results: AHI1 expression: 0.24
Gene AMPD3, hepatocytes
  RNA-seq results: AMPD3 expression: −0.18
Gene AMT, hepatocytes
  RNA-seq results: AMT expression: 0.50
Gene ANGPTL3, hepatocytes
  RNA-seq results: ANGPTL3 expression: −1.56
Gene ANKS4B, hepatocytes
  RNA-seq results: ANKS4B expression: −0.68
Gene ANKS6, hepatocytes
  RNA-seq results: ANKS6 expression: −0.21
Gene ANPEP, hepatocytes
  RNA-seq results: ANPEP expression: −1.04
Gene AOC2, hepatocytes
  RNA-seq results: AOC2 expression: −0.20
Gene APOA2, hepatocytes
  RNA-seq results: APOA2 expression: 0.31
Gene APOA5, hepatocytes
  RNA-seq results: APOA5 expression: −0.09
Gene APOB, hepatocytes
  RNA-seq results: APOB expression: −0.40
Gene COG5, hepatocytes
  RNA-seq results: COG5 expression: −0.02
Gene COG6, hepatocytes
  RNA-seq results: COG6 expression: −0.09
Gene COL1A1, hepatocytes
  RNA-seq results: COL1A1 expression: −0.35
Gene COX6A1, hepatocytes
  RNA-seq results: COX6A1 expression: −0.05
Gene CP, hepatocytes
  RNA-seq results: CP expression: 0.36
Gene CPS1, hepatocytes
  RNA-seq results: CPS1 expression: 0.2
Gene CPT1A, hepatocytes
  RNA-seq results: CPT1A expression: 0.08
Gene CPT2, hepatocytes
  RNA-seq results: CPT2 expression: 0.07
Gene CROT, hepatocytes
  RNA-seq results: CROT expression: −0.02
Gene CSPP1, hepatocytes
  RNA-seq results: CSPP1 expression: 0.35
Gene CTC1, hepatocytes
  RNA-seq results: CTC1 expression: −0.04
Gene CTDSP2, hepatocytes
  RNA-seq results: CTDSP2 expression: 0
Gene CTH, hepatocytes
  RNA-seq results: CTH expression: 0.11
Gene CTNS, hepatocytes
  RNA-seq results: CTNS expression: −0.16
Gene CTSF, hepatocytes
  RNA-seq results: CTSF expression: −0.1
Gene CTSK, hepatocytes
  RNA-seq results: CTSK expression: 0.32
Gene CYB5A, hepatocytes
  RNA-seq results: CYB5A expression: 0.09
Gene CYB5R3, hepatocytes
  RNA-seq results: CYB5R3 expression: −0.25
Gene CYP27A1, hepatocytes
  RNA-seq results: CYP27A1 expression: 0.02
Gene DAO, hepatocytes
  RNA-seq results: DAO expression: 0.02
Gene DBT, hepatocytes
  RNA-seq results: DBT expression: 0.18
Gene DCDC2, hepatocytes
  RNA-seq results: DCDC2 expression: 0.25
Gene DCXR, hepatocytes
  RNA-seq results: DCXR expression: −0.35
Gene FABP1, hepatocytes
  RNA-seq results: FABP1 expression: 0.25
Gene FADD, hepatocytes
  RNA-seq results: FADD expression: −0.32
Gene FAM111A, hepatocytes
  RNA-seq results: FAM111A expression: 0.18
Gene FAM111B, hepatocytes
  RNA-seq results: FAM111B expression: 0.01
Gene FAN1, hepatocytes
  RNA-seq results: FAN1 expression: 0.06
Gene FARS2, hepatocytes
  RNA-seq results: FARS2 expression: −0.06
Gene FASLG, hepatocytes
  RNA-seq results: FASLG expression: −0.16
Gene FGA, hepatocytes
  RNA-seq results: FGA expression: 0.15
Gene FGD1, hepatocytes
  RNA-seq results: FGD1 expression: −0.42
Gene FGFR2, hepatocytes
  RNA-seq results: FGFR2 expression: 0.36
Gene FIG4, hepatocytes
  RNA-seq results: FIG4 expression: 0.29
Gene FIS1, hepatocytes
  RNA-seq results: FIS1 expression: 0.01
Gene FTCD, hepatocytes
  RNA-seq results: FTCD expression: −0.28
Gene FTH1, hepatocytes
  RNA-seq results: FTH1 expression: −0.33
Gene FUCA1, hepatocytes
  RNA-seq results: FUCA1 expression: 0.06
Gene FXN, hepatocytes
  RNA-seq results: FXN expression: −0.37
Gene G6PC3, hepatocytes
  RNA-seq results: G6PC3 expression: −0.21
Gene G6PC, hepatocytes
  RNA-seq results: G6PC expression: −0.01
Gene G6PD, hepatocytes
  RNA-seq results: G6PD expression: −0.09
Gene GALK1, hepatocytes
  RNA-seq results: GALK1 expression: −0.45
Gene GALK2, hepatocytes
  RNA-seq results: GALK2 expression: −0.06
Gene GALT, hepatocytes
  RNA-seq results: GALT expression: 0
Gene GATA6, hepatocytes
  RNA-seq results: GATA6 expression: −0.71
Gene GATM, hepatocytes
  RNA-seq results: GATM expression: −0.01
Gene GBA, hepatocytes
  RNA-seq results: GBA expression: 0.02
Gene GBE1, hepatocytes
  RNA-seq results: GBE1 expression: −0.06
Gene GCH1, hepatocytes
  RNA-seq results: GCH1 expression: −0.12
Gene GCKR, hepatocytes
  RNA-seq results: GCKR expression: 0.14
Gene GCLC, hepatocytes
  RNA-seq results: GCLC expression: −0.06
Gene GOSH, hepatocytes
  RNA-seq results: GOSH expression: −1.23
Gene RRM2B, hepatocytes
  RNA-seq results: RRM2B: −0.32
Gene RSAD1, hepatocytes
  RNA-seq results: RSAD1: 0.01
Gene SAMHD1, hepatocytes
  RNA-seq results: SAMHD1: −1.92
Gene SC5D, hepatocytes
  RNA-seq results: SC5D: 0.47
Gene SCARB1, hepatocytes
  RNA-seq results: SCARB1: −0.67
Gene SCN9A, hepatocytes
  RNA-seq results: SCN9A: −0.32
Gene SDCCAG8, hepatocytes
  RNA-seq results: SDCCAG8: −0.50
Gene SEPN1, hepatocytes
  RNA-seq results: SEPN1: −1.37
Gene SERAC1, hepatocytes
  RNA-seq results: SERAC1: −0.31
Gene SERPINA1, hepatocytes
  RNA-seq results: SERPINA1: 0.12
Gene SERPING1, hepatocytes
  RNA-seq results: SERPING1: 0.14
Gene SERPINI1, hepatocytes
  RNA-seq results: SERPINI1: −0.06
Gene SETBP1, hepatocytes
  RNA-seq results: SETBP1: −0.38
Gene SFXN4, hepatocytes
  RNA-seq results: SFXN4: 0.25
Gene SLC10A1, hepatocytes
  RNA-seq results: SLC10A1: −0.16
Gene SLC10A3, hepatocytes
  RNA-seq results: SLC10A3: −0.82
Gene SLC10A5, hepatocytes
  RNA-seq results: SLC10A5: −1.06
Gene SLC10A7, hepatocytes
  RNA-seq results: SLC10A7: −0.12
Gene SLC11A2, hepatocytes
  RNA-seq results: SLC11A2: −0.44
Gene SLC19A1, hepatocytes
  RNA-seq results: SLC19A1: −0.33
Gene SLC19A2, hepatocytes
  RNA-seq results: SLC19A2: −0.15
Gene SLC19A3, hepatocytes
  RNA-seq results: SLC19A3: −0.16
Gene SLC22A1, hepatocytes
  RNA-seq results: SLC22A1: 0.24
Gene SLC22A5, hepatocytes
  RNA-seq results: SLC22A5: −0.38
Gene SLC25A1, hepatocytes
  RNA-seq results: SLC25A1: −0.61
Gene SLC25A10, hepatocytes
  RNA-seq results: SLC25A10: −0.64
Gene SLC25A12, hepatocytes
  RNA-seq results: SLC25A12: −0.97
Gene SLC25A13, hepatocytes
  RNA-seq results: SLC25A13: −0.53
Gene SLC25A15, hepatocytes
  RNA-seq results: SLC25A15: −0.18
Gene SLC25A19, hepatocytes
  RNA-seq results: SLC25A19: −0.47
Gene SLC25A20, hepatocytes
  RNA-seq results: SLC25A20: −1.32
Gene SLC25A29, hepatocytes
  RNA-seq results: SLC25A29: −0.54
Gene SLC25A32, hepatocytes
  RNA-seq results: SLC25A32: −0.47

## CC(C)(CO)c1cc2cc(NC(=O)C3(c4ccc5c(c4)OC(F)(F)O5)CC3)c(F)cc2n1C[C@@H](O)CO [VX-661 (tezacaptor), tezacaptor]
  significant changes in gene expression: not observed to cause any significant changes in gene expression
RNA-seq, hepatocytes
  significant modulation of expression of any of the genes analyzed: not observed to significantly modulate expression

## Fc1ccc(C(OCCN2CCN(CCCc3ccccc3)CC2)c2ccc(F)cc2)cc1 [Vanoxerine (dihydrochloride), Vanoxerine]
RNA-seq, hepatocytes
  significant modulation of expression of disease genes: significantly (q≤0.05) modulate expression of HMOX1
Gene B2M, hepatocytes
  B2M expression, RNA-seq result: −0.07
Gene B9D2, hepatocytes
  B9D2 expression, RNA-seq result: 0.29
Gene BAAT, hepatocytes
  BAAT expression, RNA-seq result: 0.01
Gene BBOX1, hepatocytes
  BBOX1 expression, RNA-seq result: 0.01
Gene BBS10, hepatocytes
  BBS10 expression, RNA-seq result: −0.41
Gene BCHE, hepatocytes
  BCHE expression, RNA-seq result: −0.5
Gene BCKDHB, hepatocytes
  BCKDHB expression, RNA-seq result: −0.06
Gene BCKDK, hepatocytes
  BCKDK expression, RNA-seq result: 0.02
Gene BCO1, hepatocytes
  BCO1 expression, RNA-seq result: 0.08
Gene BCR, hepatocytes
  BCR expression, RNA-seq result: 0.04
Gene BLNK, hepatocytes
  BLNK expression, RNA-seq result: 0.18
Gene BLOC1S3, hepatocytes
  BLOC1S3 expression, RNA-seq result: 0.46
Gene BMPR1A, hepatocytes
  BMPR1A expression, RNA-seq result: 0
Gene BRAF, hepatocytes
  BRAF expression, RNA-seq result: 0.2
Gene BSCL2, hepatocytes
  BSCL2 expression, RNA-seq result: −0.45
Gene BTD, hepatocytes
  BTD expression, RNA-seq result: −0.16
Gene C4A, hepatocytes
  C4A expression, RNA-seq result: 0.05
Gene C9, hepatocytes
  C9 expression, RNA-seq result: −0.2
Gene C10orf10, hepatocytes
  C10orf10 expression, RNA-seq result: 0.02
Gene C10orf11, hepatocytes
  C10orf11 expression, RNA-seq result: 0.18
Gene C15orf41, hepatocytes
  C15orf41 expression, RNA-seq result: 0.13
Gene CA2, hepatocytes
  CA2 expression, RNA-seq result: 0.53
Gene CA5A, hepatocytes
  CA5A expression, RNA-seq result: 0.24
Gene CA12, hepatocytes
  CA12 expression, RNA-seq result: 0.77
Gene CAV1, hepatocytes
  CAV1 expression, RNA-seq result: −0.47
Gene CCND1, hepatocytes
  CCND1 expression, RNA-seq result: −0.33
Gene CD46, hepatocytes
  CD46 expression, RNA-seq result: −0.14
Gene CD81, hepatocytes
  CD81 expression, RNA-seq result: 0.3
Gene CD320, hepatocytes
  CD320 expression, RNA-seq result: 0.17
Gene CDAN1, hepatocytes
  CDAN1 expression, RNA-seq result: 0.25
Gene CDH1, hepatocytes
  CDH1 expression, RNA-seq result: −0.29
Gene CEP19, hepatocytes
  CEP19 expression, RNA-seq result: −0.07
Gene CEP83, hepatocytes
  CEP83 expression, RNA-seq result: −0.12
Gene CEP164, hepatocytes
  CEP164 expression, RNA-seq result: 0.12
Gene CEP290, hepatocytes
  CEP290 expression, RNA-seq result: −0.14
Gene CFB, hepatocytes
  CFB expression, RNA-seq result: 0.02
Gene CFHR2, hepatocytes
  CFHR2 expression, RNA-seq result: −0.46
Gene CHRM3, hepatocytes
  CHRM3 expression, RNA-seq result: −0.06
Gene CIDEC, hepatocytes
  CIDEC expression, RNA-seq result: 0.1
Gene CLDN1, hepatocytes
  CLDN1 expression, RNA-seq result: −0.37
Gene COG1, hepatocytes
  COG1 expression, RNA-seq result: 0.06

## Fc1ccc(C(OCCN2CCN(CCCc3ccccc3)CC2)c2ccc(F)cc2)cc1 [Vanoxerine]
RNA-seq, Phase III failure compounds, hepatocytes, significance: FPKM≥0.5, log 2(fold-change)≥1, q-value≥0.05 (so in the source)
  Number (#) of genes having significantly changed expression: 17

## COC[C@@H](c1ccc(C(F)(F)F)cc1)N1CCN(C2(C)CCN(C(=O)c3c(C)ncnc3C)CC2)C[C@@H]1C [Vicriviroc (maleate), Vicriviroc]
  significant changes in gene expression: not observed to cause any significant changes in gene expression
RNA-seq, hepatocytes
  significant modulation of expression of any of the genes analyzed: not observed to significantly modulate expression
